For experiment [1], the system named is Myzus persicae (green peach aphid). In words: Example B1: activity against Myzus persicae, sprayed sunflower leaf discs (feeding/residual contact, preventive). Conditions: foliar, 144 h, read-out: activity (mortality).
The test system is the same in experiment [2]. Briefly: Example B2: activity against Myzus persicae, pea seedling roots in test solution (systemic/feeding, curative). The settings on record: 144 h, read-out: activity (mortality).
The test system of experiment [3] is Nilaparvata lugens (brown rice planthopper). In words: Example B8: activity against Nilaparvata lugens, sprayed rice seedlings (larvicide, feeding/contact). Conditions: in Oryza sativa, read-out: activity (mortality, growth regulation, effects on F1 generation).
The test system of experiment [4] is Aphis Craccivora (cowpea aphid). In words: Example B11: translaminar activity against Aphis craccivora on French bean leaves. Conditions: 120 h, upper leaf side painted, aphids on lower side, 5 days. In kind it is in vivo. The protocol: Translaminar Activity Against Aphis Craccivora (Cowpea Aphid)
French bean leaves (Phaseolus vulgaris) are infested with about 20 mixed age individuals on the lower leaf side using clip cages. 1 day after the infestation, the upper side of the leaves is treated with the test solution by painting. 5 days later, samples are checked for mortality.

For experiment [5], the system named is Myzus persicae (green peach aphid). In words: Example B13: drench activity against Myzus persicae, pea seedlings in field soil. The settings on record: 168 h, read-out: drench activity (mortality).
For experiment [6], the system named is Tetranychus urticae (two-spotted spider mite). Briefly: Example B4: activity against Tetranychus urticae, sprayed bean leaf discs (feeding/residual contact, preventive). Conditions: foliar, 192 h, read-out: activity (egg, larval and adult mortality).
The test system of experiment [7] is Aphis Craccivora (cowpea aphid). Briefly: Example B10: activity against Aphis craccivora, pea seedling roots in test solution (systemic/feeding). It counts as in vivo. The settings on record: 144 h, roots of infested pea seedlings in test solution, 6 days. The source says: Activity Against Aphis Craccivora (Cowpea Aphid)
(Mixed Population, Systemic/Feeding)

Experiment [8] deals with Myzus persicae (green peach aphid). In words: Example B17: activity against Myzus persicae on sprayed pepper plants (feeding/residual contact). Conditions: 144 h, infested pepper plants sprayed, 6 days. In kind it is in vivo.
For experiment [9], the system named is Thrips tabaci (onion thrips). Briefly: Example B3: activity against Thrips tabaci, sprayed sunflower leaf discs (feeding/residual contact, preventive). Conditions: foliar, 144 h, mixed population, 6 days. In kind it is in vivo. The source says: Activity Against Thrips tabaci (Onion Thrips)
(Mixed Population, Feeding/Residual Contact Activity, Preventive)

Experiment [10] deals with Bemisia tabaci (tobacco white fly). In words: Example B7: activity against Bemisia tabaci, sprayed bean plants (larvicide, contact/feeding). The settings on record: 504 h, bean plants with N-2 nymphs sprayed, three weeks, read-out: activity (efficacy, number of emerged adults). In kind it is in vivo. The protocol:
Activity Against Bemisia tabaci (Tobacco White Fly)
(Larvicide, Contact/Feeding)
Bean plants are infested with 20-30 adults that were removed after a 4 day egg-laying period. After another 7 days, bean plants with hatched nymphs (N-2) are treated (2 replicates) with the test solutions in a spray chamber. Three weeks later, samples are checked for number of emerged adults. Efficacy was calculated by comparing number of emerged adults in treated and non treated samples.

The source of these data is patent US20110224079A1, “SPIROHETEROCYCLIC N-OXYAMIDES AS PESTICIDES” (SYNGENTA CROP PROTECTION LLC, priority 2008, published 2011).

As for `COCON1C(=O)C(c2cc(C)ccc2C)=C(OC(=O)C2CC2)C12CCN(OC)CC2` [P1.4, Cyclopropanecarboxylic acid 3-(2,5-dimethyl-phenyl)-8-methoxy-1-methoxymethoxy-2-oxo-1,8-diaza-spiro[4.5]dec-3-en-4-yl ester], the mortality at 400 ppm in experiment [1], in experiment [2], in [3], in experiment [4] and in experiment [6] was > 80% throughout. Further, the mortality at 25 ppm in experiment [5] is > 80%.

As for `CCOC(=O)OC1=C(c2c(C)cc(C)cc2C)C(=O)N(OCC2(C)COC2)C12CCN(OC)CC2` [P1.23], the mortality at 400 ppm in [2], in experiment [7] and in [4] was > 80% throughout. The mortality at 25 ppm in experiment [5] was > 80%.

`CCOC(=O)OC1=C(c2c(C)cc(C)cc2C)C(=O)N(OCC2CCCO2)C12CCN(OC)CC2` (stereo not shown) [P1.24]: the mortality at 400 ppm in experiment [1], in experiment [2], in experiment [3], in experiment [7], in experiment [4] and in experiment [6] was > 80% each time. Besides, the mortality at 200 ppm in experiment [8] was ≥ 80%. The mortality at 25 ppm in experiment [5] was > 80%.

For the compound `CCOC(=O)OC1=C(c2c(C)cc(C)cc2C)C(=O)N(OCCOC2CCCCO2)C12CCN(OC)CC2` (stereo not shown) [P1.25], the mortality at 400 ppm in [3], in [7] and in [6] was > 80% each time.

Regarding `CCOC(=O)OC1=C(c2c(C)cc(C)cc2C)C(=O)N(OC2CCCC2)C12CCN(OC)CC2` [P1.28], the mortality at 400 ppm in experiment [3] and in experiment [6] was > 80% throughout.

Turning to `CCOC(=O)OC1=C(c2c(C)ccc(C)c2C)C(=O)N(OCOC)C12CCN(OC)CC2` [P1.53], the mortality at 400 ppm in experiment [2], in experiment [3], in experiment [7] and in [4] was > 80% each time. Further, the mortality at 200 ppm in experiment [8] is ≥ 80%. For the same compound, in [5], the mortality at 25 ppm is > 80%.

Consider `CCOC(=O)OC1=C(c2c(C)ccc(Cl)c2C)C(=O)N(OCOC)C12CCN(OC)CC2` [P1.55], for which the mortality at 400 ppm in experiment [1], in experiment [2], in experiment [3], in [7] and in experiment [4] was > 80% in each case. Besides, in [8], the mortality at 200 ppm is ≥ 80%. The mortality at 25 ppm in experiment [5] was > 80%.

On to `CCOC(=O)OC1=C(c2c(C)ccc(C)c2Cl)C(=O)N(OCOC)C12CCN(OC)CC2` [P1.59], for which the mortality at 400 ppm in experiment [1], in experiment [2], in [3], in [7], in [4] and in [6] was > 80% in each case. Further, the mortality at 25 ppm in experiment [5] is > 80%.

Regarding `CCOC(=O)OC1=C(c2c(C)cc(Br)cc2C)C(=O)N(OCOC)C12CCN(OC)CC2` [P1.62], the mortality at 400 ppm in experiment [9] was > 80%.

Consider `CCOC(=O)OC1=C(c2c(C)cc(C)cc2Cl)C(=O)N(OC)C12CCN(OC)CC2` [P1.70], for which the mortality at 400 ppm in experiment [1], in experiment [2], in experiment [3], in [7] and in experiment [4] was > 80% in each case. For the same compound, the mortality at 25 ppm in experiment [5] was > 80%.

Regarding `CCOC(=O)OC1=C(c2c(C)cc(C)cc2C)C(=O)N(OCC2CCOC2)C12CCN(OC)CC2` (stereo not shown) [P1.78], the mortality at 400 ppm in [2], in experiment [3], in experiment [7], in experiment [4] and in experiment [6] was > 80% throughout. Moreover, the mortality at 200 ppm in experiment [8] is ≥ 80%. For the same compound, the pest or weed control at 200 ppm in [10] was > 80%. Further, the mortality at 25 ppm in [5] was > 80%.

For the compound `CCOC(=O)OC1=C(c2c(C)cc(Br)cc2C)C(=O)N(OC)C12CCN(OC)CC2` [P1.88], the mortality at 400 ppm in experiment [1], in [2], in experiment [3] and in experiment [6] was > 80% each time. The mortality at 200 ppm in experiment [8] is ≥ 80%. Besides, in experiment [5], the mortality at 25 ppm was > 80%.

Turning to `CCOC(=O)OC1=C(c2c(C)cc(C)cc2Cl)C(=O)N(OC2CCCO2)C12CCN(OC)CC2` (stereo not shown) [P1.107], the mortality at 400 ppm in [1], in experiment [2], in experiment [3], in experiment [7] and in [4] was > 80% throughout. Besides, in experiment [8], the mortality at 200 ppm was ≥ 80%. In experiment [5], the mortality at 25 ppm was > 80%.

Consider `CON1CCC2(CC1)C(O)=C(c1cc(C)ccc1C)C(=O)N2OC` [P2.1], for which the mortality at 400 ppm in [1] and in experiment [2] was > 80% each time. Moreover, the mortality at 25 ppm in experiment [5] was > 80%.

Regarding `COCCON1C(=O)C(c2cc(C)ccc2C)=C(O)C12CCN(OC)CC2` [P2.3], the mortality at 400 ppm in experiment [1], in experiment [2], in experiment [3] and in experiment [4] was > 80% each time. Besides, the mortality at 200 ppm in experiment [8] is ≥ 80%. The mortality at 25 ppm in [5] was > 80%.

With `CON1CCC2(CC1)C(O)=C(c1c(C)cc(C)cc1C)C(=O)N2OCC1(C)COC1` [P2.19], the mortality at 400 ppm in experiment [1], in experiment [2], in experiment [3], in [7], in [4] and in experiment [6] was > 80% throughout. For the same compound, in [8], the mortality at 200 ppm is ≥ 80%.

Regarding `CON1CCC2(CC1)C(O)=C(c1c(C)cc(C)cc1C)C(=O)N2OC1CCOCC1` [P2.21], the mortality at 400 ppm in experiment [1], in experiment [2], in [3], in experiment [7], in experiment [4] and in [6] was > 80% in each case. In addition, in experiment [8], the mortality at 200 ppm is ≥ 80%. For the same compound, in experiment [5], the mortality at 25 ppm was > 80%.

As to `CON1CCC2(CC1)C(O)=C(c1c(C)cc(C)cc1C)C(=O)N2OCC1CCCCO1` (stereo not shown) [P2.23], the mortality at 400 ppm in experiment [1], in experiment [2], in experiment [3], in experiment [7] and in experiment [4] was > 80% throughout.

Take `CON1CCC2(CC1)C(O)=C(c1c(C)cc(C)cc1C)C(=O)N2OC1CCCC1` [P2.25]: the mortality at 400 ppm in experiment [1], in experiment [2], in experiment [3] and in [6] was > 80% throughout.

`CON1CCC2(CC1)C(O)=C(c1ccc(C)cc1C)C(=O)N2OC` [P2.51]: the mortality at 400 ppm in experiment [1], in [2] and in experiment [9] was > 80% each time.

For `COCCON1C(=O)C(c2c(C)cc(C)cc2Br)=C(O)C12CCN(OC)CC2` [P2.57], the mortality at 400 ppm in [1], in [2], in experiment [3], in experiment [7], in [4] and in experiment [6] was > 80% in each case. In experiment [5], the mortality at 25 ppm was > 80%.

On to `CON1CCC2(CC1)C(O)=C(c1c(C)cc(Br)cc1C)C(=O)N2OC1CCCO1` (stereo not shown) [P2.62], for which the mortality at 400 ppm in experiment [2] and in experiment [9] was > 80% each time. In addition, the mortality at 200 ppm in [8] was ≥ 80%.

For `CON1CCC2(CC1)C(O)=C(c1c(C)cc(C)cc1C)C(=O)N2OCc1ccoc1` [P2.64], the mortality at 400 ppm in experiment [1], in experiment [2], in experiment [3], in experiment [7], in [4] and in experiment [6] was > 80% in each case. The mortality at 200 ppm in [8] is ≥ 80%. Besides, in experiment [10], the pest or weed control at 200 ppm is > 80%. Moreover, in experiment [5], the mortality at 25 ppm is > 80%.

On to `CON1CCC2(CC1)C(O)=C(c1c(C)cc(C)cc1C)C(=O)N2OCC1CCOCC1` [P2.84], for which the mortality at 400 ppm in [1], in experiment [2] and in [9] was > 80% in each case.

On to `CON1CCC2(CC1)C(O)=C(c1c(C)cc(C)cc1C)C(=O)N2OCC1CCC1` [P2.97], for which the mortality at 400 ppm in [1], in [2] and in experiment [6] was > 80% throughout. The mortality at 200 ppm in experiment [8] is ≥ 80%.
